Here are results for 30 molecules from patent US10988478B1, “Pyrazolo[1,5a]pyrimidine derivatives as IRAK4 modulators” (Genentech, Inc., priority 2015, dated 2021).

The target of this experiment is human IRAK4 (Homo sapiens (Human), UniProt Q9NWZ3). The experiment can be described thus: IRAK4 kinase inhibition, Transcreener fluorescence polarization ADP assay. To be noted: recombinant full-length His6-IRAK4; 125 uM ATP; 90 min; Ki computed using ATP Km 642 uM. It counts as biochemical. Here is the method: Compounds were assayed for inhibition of human IRAK4 and IRAK1 catalytic activity using recombinant enzyme produced from insect cells. Full-length IRAK4 protein, carrying an N-terminal His6-Tag, was obtained from Life Technologies (Carlsbad, Calif., USA). The IRAK1 construct was produced internally and was comprised of IRAK1 residues Arg194 to Ser712, preceded by an NH2-terminal His6 tag and the coding sequence for glutathione-S-transferase.
Chain of human IRAK4 (Q9NWZ3 whole entry, the tested form may be a part): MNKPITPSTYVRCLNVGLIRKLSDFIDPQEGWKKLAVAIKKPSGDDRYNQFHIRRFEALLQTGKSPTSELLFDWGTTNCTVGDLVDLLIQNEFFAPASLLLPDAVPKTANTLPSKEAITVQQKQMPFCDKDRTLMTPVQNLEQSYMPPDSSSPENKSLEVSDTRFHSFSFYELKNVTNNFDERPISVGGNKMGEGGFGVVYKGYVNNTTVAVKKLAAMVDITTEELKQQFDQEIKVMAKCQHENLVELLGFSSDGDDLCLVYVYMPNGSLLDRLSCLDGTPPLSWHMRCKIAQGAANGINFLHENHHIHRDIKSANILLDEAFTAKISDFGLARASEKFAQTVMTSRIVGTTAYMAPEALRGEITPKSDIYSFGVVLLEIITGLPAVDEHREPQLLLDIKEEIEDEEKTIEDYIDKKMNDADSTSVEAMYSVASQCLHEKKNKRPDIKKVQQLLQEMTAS
(Polarisation of emitted light reports the rotation of a fluorescent probe.)
In general, Ki refers to a measure of affinity in units of concentration, obtained from inhibition or displacement. For the molecule `CC1(C)CN(c2cc3c(cc2NC(=O)c2cnn4cccnc24)C[C@](C)(CO)O3)CCO1` [Example 36, (R)—N-(6-(2,2-dimethylmorpholino)-2-(hydroxymethyl)-2-methyl-2,3-dihydrobenzofuran-5-yl)pyrazolo[1,5-a]pyrimidine-3-carboxamide], the Ki was determined as 150 nM. As to `CC1(C)CN(c2cc3c(cc2NC(=O)c2cnn4cccnc24)C[C@@](C)(CO)O3)CCO1` [Example 37, (S)—N-(6-(2,2-dimethylmorpholino)-2-(hydroxymethyl)-2-methyl-2,3-dihydrobenzofuran-5-yl)pyrazolo[1,5-a]pyrimidine-3-carboxamide], the Ki is 370 nM. Consider `CC1(C(=O)O)Cc2cc(NC(=O)c3cnn4cccnc34)c(N3CCOCC3)cc2O1` (stereo not drawn) [Example 38, 2-Methyl-6-morpholino-5-(pyrazolo[1,5-a]pyrimidine-3-carboxamido)-2,3-dihydrobenzofuran-2-carboxylicacid], for which the inhibition constant (Ki) was determined as 360 nM. Consider `O=C(Nc1cc2c(cc1N1CCOCC1)OC1(CCOCC1)C2)c1cnn2cccnc12` [Example 39, N-(6-Morpholino-2′,3′,5′,6′-tetrahydro-3H-spiro[benzofuran-2,4′-pyran]-5-yl)pyrazolo[1,5-a]pyrimidine-3-carboxamide], for which the Ki came to 11 nM.

On to `CC1(C)Cc2cc(NC(=O)c3cnn4cccnc34)c(N3CCC(F)(CO)CC3)cc2O1` [Example 40, N-(6-(4-Fluoro-4-(hydroxymethyl)piperidin-1-yl)-2,2-dimethyl-2,3-dihydrobenzofuran-5-yl)pyrazolo[1,5-a]pyrimidine-3-carboxamide], for which the Ki amounted to 1 nM.

For `CC1(C)Cc2cc(NC(=O)c3cnn4cccnc34)c(N3CCS(=O)(=O)CC3)cc2O1` [Example 41, N-[6-(1,1-Dioxo-thiomorpholin-4-yl)-2,2-dimethyl-2,3-dihydro-1-benzofuran-5-yl]pyrazolo[1,5-a]pyrimidine-3-carboxamide], the inhibitory constant (Ki) was 84 nM.

Turning to `C[C@]1(CO)Cc2cc(NC(=O)c3cnn4cccnc34)c(N3C[C@H]4C[C@@H]3CO4)cc2O1` [Example 42, N—((R)-6-((1R,4R)-2-Oxa-5-azabicyclo[2.2.1]heptan-5-yl)-2-(hydroxymethyl)-2-methyl-2,3-dihydrobenzofuran-5-yl)pyrazolo[1,5-a]pyrimidine-3-carboxamide], the inhibition constant Ki is 200 nM. `C[C@@]1(CO)Cc2cc(NC(=O)c3cnn4cccnc34)c(N3C[C@H]4C[C@@H]3CO4)cc2O1` [Example 43, N—((S)-6-((1R,4R)-2-Oxa-5-azabicyclo[2.2.1]heptan-5-yl)-2-(hydroxymethyl)-2-methyl-2,3-dihydrobenzofuran-5-yl)pyrazolo[1,5-a]pyrimidine-3-carboxamide]: the Ki came out at 130 nM.

Consider `C[C@]1(CO)Cc2cc(NC(=O)c3cnn4cccnc34)c(N3C[C@@H]4C[C@H]3CO4)cc2O1` [Example 47, N—((R)-6-((1S,4S)-2-Oxa-5-azabicyclo[2.2.1]heptan-5-yl)-2-(hydroxymethyl)-2-methyl-2,3-dihydrobenzofuran-5-yl)pyrazolo[1,5-a]pyrimidine-3-carboxamide], for which the Ki came to 180 nM. Regarding `CNC(=O)[C@]1(C)Cc2cc(NC(=O)c3cnn4cccnc34)c(N3CCOCC3)cc2O1` [Example 48, (S)—N-(2-Methyl-2-(methylcarbamoyl)-6-morpholino-2,3-dihydrobenzofuran-5-yl)pyrazolo[1,5-a]pyrimidine-3-carboxamide], the inhibition constant (Ki) came out at 190 nM. Regarding `CNC(=O)[C@@]1(C)Cc2cc(NC(=O)c3cnn4cccnc34)c(N3CCOCC3)cc2O1` [Example 49, (R)—N-(2-Methyl-2-(methylcarbamoyl)-6-morpholino-2,3-dihydrobenzofuran-5-yl)pyrazolo[1,5-a]pyrimidine-3-carboxamide], the inhibitory constant (Ki) stood at 22 nM.

On to `C[C@]1(C(F)F)Cc2cc(NC(=O)c3cnn4cccnc34)c(N3CCOCC3)cc2O1` [Example 50, (R)—N-(2-(Difluoromethyl)-2-methyl-6-morpholino-2,3-dihydrobenzofuran-5-yl)pyrazolo[1,5-a]pyrimidine-3-carboxamide], for which the Ki worked out at 6.2 nM. With `C[C@@]1(C(F)F)Cc2cc(NC(=O)c3cnn4cccnc34)c(N3CCOCC3)cc2O1` [Example 51, (S)—N-(2-(Difluoromethyl)-2-methyl-6-morpholino-2,3-dihydrobenzofuran-5-yl)pyrazolo[1,5-a]pyrimidine-3-carboxamide] the figure was 9.6 nM; with `Cc1cnc2c(C(=O)Nc3cc4c(cc3N3CCC(C(C)(C)O)CC3)O[C@@](C)(CO)C4)cnn2c1` [Example 52, (R)—N-(2-(Hydroxymethyl)-6-(4-(2-hydroxypropan-2-yl)piperidin-1-yl)-2-methyl-2,3-dihydrobenzofuran-5-yl)-6-methylpyrazolo[1,5-a]pyrimidine-3-carboxamide], 3.8 nM.

For `Cc1cnc2c(C(=O)Nc3cc4c(cc3N3CCC(C(C)(C)O)CC3)O[C@](C)(CO)C4)cnn2c1` [Example 53, (S)—N-(2-(Hydroxymethyl)-6-(4-(2-hydroxypropan-2-yl)piperidin-1-yl)-2-methyl-2,3-dihydrobenzofuran-5-yl)-6-methylpyrazolo[1,5-a]pyrimidine-3-carboxamide], the inhibitory constant (Ki) came to 2.7 nM. Regarding `C[C@]1(CO)Cc2cc(NC(=O)c3cnn4cc(F)cnc34)c(N3CCOCC3)cc2O1` [Example 54, (R)-6-Fluoro-N-(2-(hydroxymethyl)-2-methyl-6-morpholino-2,3-dihydrobenzofuran-5-yl)pyrazolo[1,5-a]pyrimidine-3-carboxamide], the Ki is 16 nM. For the molecule `C[C@@]1(CO)Cc2cc(NC(=O)c3cnn4cc(F)cnc34)c(N3CCOCC3)cc2O1` [Example 55, (S)-6-Fluoro-N-(2-(hydroxymethyl)-2-methyl-6-morpholino-2,3-dihydrobenzofuran-5-yl)pyrazolo[1,5-a]pyrimidine-3-carboxamide], the Ki was 34 nM. With `C[C@@]1(CO)Cc2cc(NC(=O)c3cnn4cccnc34)c(N3CC[C@H](F)C3)cc2O1` [Example 56, N-[(2S)-6-[(3S)-3-Fluoropyrrolidin-1-yl]-2-(hydroxymethyl)-2-methyl-3H-benzofuran-5-yl]pyrazolo[1,5-a]pyrimidine-3-carboxamide], the inhibitory constant (Ki) stood at 21 nM. With `C[C@]1(CO)Cc2cc(NC(=O)c3cnn4cccnc34)c(N3CC[C@H](F)C3)cc2O1` [Example 57, N-[(2R)-6-[(3S)-3-Fluoropyrrolidin-1-yl]-2-(hydroxymethyl)-2-methyl-3H-benzofuran-5-yl]pyrazolo[1,5-a]pyrimidine-3-carboxamide], the inhibition constant Ki was determined as 60 nM. As to `C[C@]1(CO)Cc2cc(NC(=O)c3cnn4cccnc34)c(N3CC[C@@H](F)C3)cc2O1` [Example 58, N-[(2R)-6-[(3R)-3-Fluoropyrrolidin-1-yl]-2-(hydroxymethyl)-2-methyl-3H-benzofuran-5-yl]pyrazolo[1,5-a]pyrimidine-3-carboxamide], the Ki was determined as 36 nM.

With `C[C@@]1(CO)Cc2cc(NC(=O)c3cnn4cccnc34)c(N3CC[C@@H](F)C3)cc2O1` [Example 59, N-[(2S)-6-[(3R)-3-Fluoropyrrolidin-1-yl]-2-(hydroxymethyl)-2-methyl-3H-benzofuran-5-yl]pyrazolo[1,5-a]pyrimidine-3-carboxamide], the inhibitory constant (Ki) amounted to 9.6 nM. In the case of `CC1(C)Cc2cc(NC(=O)c3cnn4cccnc34)c(N3CCN(CCO)CC3)cc2O1` [Example 60, N-[6-[4-(2-Hydroxyethyl)piperazin-1-yl]-2,2-dimethyl-3H-benzofuran-5-yl]pyrazolo[1,5-a]pyrimidine-3-carboxamide], the Ki amounted to 6.6 nM.

As to `CC1(C)Cc2cc(NC(=O)c3cnn4cc(C5CC5)cnc34)c(N3CCOCC3)cc2O1` [Example 61, 6-Cyclopropyl-N-(2,2-dimethyl-6-morpholino-3H-benzofuran-5-yl)pyrazolo[1,5-a]pyrimidine-3-carboxamide], the Ki was found to be 35 nM. For `CC1(C)Cc2cc(NC(=O)c3cnn4cccnc34)c(C3CCNCC3)cc2O1` [Example 62, N-[2,2-Dimethyl-6-(4-piperidyl)-3H-benzofuran-5-yl]pyrazolo[1,5-a]pyrimidine-3-carboxamide], the inhibition constant Ki turned out to be 260 nM. The result for `CN1CCC(c2cc3c(cc2NC(=O)c2cnn4cccnc24)CC(C)(C)O3)CC1` [Example 63, N-[2,2-Dimethyl-6-(1-methyl-4-piperidyl)-3H-benzofuran-5-yl]pyrazolo[1,5-a]pyrimidine-3-carboxamide] reads 390 nM; that for `CC1(C)Cc2cc(NC(=O)c3cnn4cccnc34)c(O[C@H]3CC[C@@H](O)CC3)cc2O1` [Example 64, Cis-N-[6-(4-hydroxycyclohexoxy)-2,2-dimethyl-3H-benzofuran-5-yl]pyrazolo[1,5-a]pyrimidine-3-carboxamide], 8.7 nM; that for `CC1(C)Cc2cc(NC(=O)c3cnn4cccnc34)c(O[C@H]3CC[C@H](O)CC3)cc2O1` [Example 65, Trans-N-[6-(4-hydroxycyclohexoxy)-2,2-dimethyl-3H-benzofuran-5-yl]pyrazolo[1,5-a]pyrimidine-3-carboxamide], 9.2 nM. As for `C[C@]1(CO)Cc2cc(NC(=O)c3cnn4cccnc34)c(N3CCC(F)(F)C3)cc2O1` [Example 66, N-[(2R)-6-(3,3-Difluoropyrrolidin-1-yl)-2-(hydroxymethyl)-2-methyl-3H-benzofuran-5-yl]pyrazolo[1,5-a]pyrimidine-3-carboxamide], the Ki worked out at 24 nM. Turning to `C[C@@]1(CO)Cc2cc(NC(=O)c3cnn4cccnc34)c(N3CCC(F)(F)C3)cc2O1` [Example 67, N-[(2S)-6-(3,3-Difluoropyrrolidin-1-yl)-2-(hydroxymethyl)-2-methyl-3H-benzofuran-5-yl]pyrazolo[1,5-a]pyrimidine-3-carboxamide], the Ki came to 4.4 nM. With `CC1(C)Cc2cc(NC(=O)c3cnn4cccnc34)c(N3CC(O)C(F)(F)C3)cc2O1` (stereo not drawn) [Example 68, N-(6-(3,3-Difluoro-4-hydroxypyrrolidin-1-yl)-2,2-dimethyl-2,3-dihydrobenzofuran-5-yl)pyrazolo[1,5-a]pyrimidine-3-carboxamide] the figure was 9.8 nM.
